From PMC5909127, “Optimization of a “bump-and-hole” approach to allele-selective BET bromodomain inhibition” (Chemical Science, 2018)
pIC50: −log10 of the molar value.

Molecular target: BRD3 BD1 L/V (Homo sapiens, UniProt Q15059, L70V)
Sequence (Q15059 24-144 L70V limits assumed): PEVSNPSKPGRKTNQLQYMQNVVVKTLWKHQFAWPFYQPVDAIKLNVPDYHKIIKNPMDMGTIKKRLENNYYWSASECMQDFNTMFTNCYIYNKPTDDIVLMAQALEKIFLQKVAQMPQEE
Assay: competitive AlphaLISA
Type: binding
Details: not given
In the case of `COC(=O)[C@H](C)[C@@H]1N=C(c2ccc(Cl)cc2)c2cc(OC)ccc2-n2c(C)nnc21` (relative stereo) [Compound 3], the pIC50 was 7.50.
Work on `C=CC[C@@H](C(=O)OC(C)(C)C)[C@@H]1N=C(c2ccc(Cl)cc2)c2cc(OC)ccc2-n2c(C)nnc21` [Compound 24] yielded a pIC50 of 6.50.
Compound `COC(=O)CC1N=C(c2ccc(Cl)cc2)c2ccc(OC)cc2-n2c(C)nnc21` (stereo not drawn) [Compound 2] has a pIC50 of 6.30.

Molecular target: BRDT BD2 WT (Homo sapiens, UniProt Q58F21)
Assay: competitive AlphaLISA
Type: binding
Details: not given
Compound `COC(=O)[C@H](C)[C@@H]1N=C(c2ccc(Cl)cc2)c2cc(OC)ccc2-n2c(C)nnc21` (relative stereo) [Compound 3] has a pIC50 of 5.90.
In the case of `C=CC[C@@H](C(=O)OC(C)(C)C)[C@@H]1N=C(c2ccc(Cl)cc2)c2cc(OC)ccc2-n2c(C)nnc21` [Compound 24], the pIC50 was 5.00.
In the case of `COC(=O)CC1N=C(c2ccc(Cl)cc2)c2ccc(OC)cc2-n2c(C)nnc21` (stereo not drawn) [Compound 2], the pIC50 was 5.40.

Molecular target: BRD2 BD2 L/V (Homo sapiens, UniProt P25440, L383V)
Sequence (P25440 344-455 L383V): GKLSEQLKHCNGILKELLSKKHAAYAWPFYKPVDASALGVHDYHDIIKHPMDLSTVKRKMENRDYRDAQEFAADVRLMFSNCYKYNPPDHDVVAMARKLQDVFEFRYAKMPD
Assay: competitive AlphaLISA
Type: binding
Details: not given
Compound `C=CC[C@@H](C(=O)OC(C)(C)C)[C@@H]1N=C(c2ccc(Cl)cc2)c2cc(OC)ccc2-n2c(C)nnc21` [Compound 24] has a pIC50 of 6.30.
Compound `COC(=O)CC1N=C(c2ccc(Cl)cc2)c2ccc(OC)cc2-n2c(C)nnc21` (stereo not drawn) [Compound 2] has a pIC50 of 5.70.

Molecular target: BRD3 BD2 WT (Homo sapiens, UniProt Q15059)
Sequence (Q15059 306-416): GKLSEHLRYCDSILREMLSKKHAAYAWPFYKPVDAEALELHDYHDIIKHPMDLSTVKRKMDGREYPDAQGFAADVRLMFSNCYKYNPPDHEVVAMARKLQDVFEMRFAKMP
Assay: competitive AlphaLISA
Type: binding
Details: not given
With `C=CC[C@@H](C(=O)OC(C)(C)C)[C@@H]1N=C(c2ccc(Cl)cc2)c2cc(OC)ccc2-n2c(C)nnc21` [Compound 24] the pIC50 was 5.20.
Work on `COC(=O)CC1N=C(c2ccc(Cl)cc2)c2ccc(OC)cc2-n2c(C)nnc21` (stereo not drawn) [Compound 2] yielded a pIC50 of 5.60.

Tested on: L/V BET bromodomains (BD1 and BD2 of BRD2, BRD3 and BRD4)
Assay: competitive AlphaLISA (Bio-JQ1 displacement)
Type: binding, human
Details: L/V minus WT
In the case of `COC(=O)[C@H](C)[C@@H]1N=C(c2ccc(Cl)cc2)c2cc(OC)ccc2-n2c(C)nnc21` (relative stereo) [Compound 3], the “AlphaLISA pIC50 ± SD Δ” value was 1.2 ± 0.2.
For `C=CC[C@@H](C(=O)OC(C)(C)C)[C@@H]1N=C(c2ccc(Cl)cc2)c2cc(OC)ccc2-n2c(C)nnc21` [Compound 24], the “AlphaLISA pIC50 ± SD Δ” value was 0.9 ± 0.2.
For `COC(=O)CC1N=C(c2ccc(Cl)cc2)c2ccc(OC)cc2-n2c(C)nnc21` (stereo not drawn) [Compound 2], the “AlphaLISA pIC50 ± SD Δ” value was 0.1 ± 0.1.

Same assay, conditions: mean and SD of all somatic bromodomains; active enantiomer concentration
With `C=CC[C@@H](C(=O)OC(C)(C)C)[C@@H]1N=C(c2ccc(Cl)cc2)c2cc(OC)ccc2-n2c(C)nnc21` [Compound 24] the “AlphaLISA pIC50 ± SD L/V” value was 6.2 ± 0.2.
With `COC(=O)CC1N=C(c2ccc(Cl)cc2)c2ccc(OC)cc2-n2c(C)nnc21` (stereo not drawn) [Compound 2] the “AlphaLISA pIC50 ± SD L/V” value was 5.9 ± 0.2.

Molecular target: BRDT BD1 WT (Homo sapiens, UniProt Q58F21)
Assay: competitive AlphaLISA
Type: binding
Details: not given
For `COC(=O)[C@H](C)[C@@H]1N=C(c2ccc(Cl)cc2)c2cc(OC)ccc2-n2c(C)nnc21` (relative stereo) [Compound 3], the pIC50 was 5.70.
Work on `C=CC[C@@H](C(=O)OC(C)(C)C)[C@@H]1N=C(c2ccc(Cl)cc2)c2cc(OC)ccc2-n2c(C)nnc21` [Compound 24] yielded a pIC50 of 5.10.
Compound `COC(=O)CC1N=C(c2ccc(Cl)cc2)c2ccc(OC)cc2-n2c(C)nnc21` (stereo not drawn) [Compound 2] has a pIC50 of 5.70.

Molecular target: BRD4 BD1 WT (Homo sapiens, UniProt O60885)
Assay: competitive AlphaLISA
Type: binding
Details: AlphaLISA pIC50 Value BRD4 BD1 WT
`C=CC[C@@H](C(=O)OC(C)(C)C)[C@@H]1N=C(c2ccc(Cl)cc2)c2cc(OC)ccc2-n2c(C)nnc21` [Compound 24] gave a pIC50 of 5.30.
With `COC(=O)CC1N=C(c2ccc(Cl)cc2)c2ccc(OC)cc2-n2c(C)nnc21` (stereo not drawn) [Compound 2] the pIC50 was 6.00.

Molecular target: BRDT BD1 L/V (Homo sapiens, UniProt Q58F21, L63V)
Assay: competitive AlphaLISA
Type: binding
Details: not given
With `C=CC[C@@H](C(=O)OC(C)(C)C)[C@@H]1N=C(c2ccc(Cl)cc2)c2cc(OC)ccc2-n2c(C)nnc21` [Compound 24] the pIC50 was 5.70.
For `COC(=O)CC1N=C(c2ccc(Cl)cc2)c2ccc(OC)cc2-n2c(C)nnc21` (stereo not drawn) [Compound 2], the pIC50 was 5.80.

Molecular target: BRD4 BD2 WT (Homo sapiens, UniProt O60885)
Assay: competitive AlphaLISA
Type: binding
Details: not given
For `C=CC[C@@H](C(=O)OC(C)(C)C)[C@@H]1N=C(c2ccc(Cl)cc2)c2cc(OC)ccc2-n2c(C)nnc21` [Compound 24], the pIC50 was 5.40.
In the case of `COC(=O)CC1N=C(c2ccc(Cl)cc2)c2ccc(OC)cc2-n2c(C)nnc21` (stereo not drawn) [Compound 2], the pIC50 was 5.60.

Tested on: not listed separately
Assay: Intrinsic Clearance
Details: mouse liver microsomes
With `COC(=O)[C@H](C)[C@@H]1N=C(c2ccc(Cl)cc2)c2cc(OC)ccc2-n2c(C)nnc21` (relative stereo) [Compound 3] the CL int was 0.7 ml min^–1 g^–1.
`C=CC[C@@H](C(=O)OC(C)(C)C)[C@@H]1N=C(c2ccc(Cl)cc2)c2cc(OC)ccc2-n2c(C)nnc21` [Compound 24] gave a CL int of 39.1 ml min^–1 g^–1.
`COC(=O)CC1N=C(c2ccc(Cl)cc2)c2ccc(OC)cc2-n2c(C)nnc21` (stereo not drawn) [Compound 2] showed a CL int of 1.7 ml min^–1 g^–1.

Molecular target: WT BET bromodomains (BD1 and BD2 of BRD2, BRD3 and BRD4)
Assay: competitive AlphaLISA (Bio-JQ1 displacement)
Type: binding, human
Details: mean and SD of all somatic bromodomains; active enantiomer concentration
In the case of `COC(=O)[C@H](C)[C@@H]1N=C(c2ccc(Cl)cc2)c2cc(OC)ccc2-n2c(C)nnc21` (relative stereo) [Compound 3], the “AlphaLISA pIC50 ± SD WT” value was 6.2 ± 0.3.
In the case of `C=CC[C@@H](C(=O)OC(C)(C)C)[C@@H]1N=C(c2ccc(Cl)cc2)c2cc(OC)ccc2-n2c(C)nnc21` [Compound 24], the “AlphaLISA pIC50 ± SD WT” value was 5.3 ± 0.1.
For `COC(=O)CC1N=C(c2ccc(Cl)cc2)c2ccc(OC)cc2-n2c(C)nnc21` (stereo not drawn) [Compound 2], the “AlphaLISA pIC50 ± SD WT” value was 5.8 ± 0.2.

Molecular target: BRD4 BD2 L/V (Homo sapiens, UniProt O60885, L387V)
Assay: competitive AlphaLISA
Type: binding
Details: not given
In the case of `C=CC[C@@H](C(=O)OC(C)(C)C)[C@@H]1N=C(c2ccc(Cl)cc2)c2cc(OC)ccc2-n2c(C)nnc21` [Compound 24], the pIC50 was 6.00.
Work on `COC(=O)CC1N=C(c2ccc(Cl)cc2)c2ccc(OC)cc2-n2c(C)nnc21` (stereo not drawn) [Compound 2] yielded a pIC50 of 5.60.

Molecular target: BRD4 BD1 L/V (Homo sapiens, UniProt O60885, L94V)
Assay: competitive AlphaLISA
Type: binding
Details: AlphaLISA pIC50 Value BRD4 BD1 L/V
Compound `COC(=O)CC1N=C(c2ccc(Cl)cc2)c2ccc(OC)cc2-n2c(C)nnc21` (stereo not drawn) [Compound 2] has a pIC50 of 6.00.

Molecular target: BRD2 BD1 L/V (Homo sapiens, UniProt P25440, L110V)
Sequence (P25440 71-176 L110V limits assumed): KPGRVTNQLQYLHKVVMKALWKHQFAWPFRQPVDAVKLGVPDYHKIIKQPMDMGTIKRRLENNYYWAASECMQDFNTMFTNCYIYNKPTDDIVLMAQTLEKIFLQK
Assay: competitive AlphaLISA
Type: binding
Details: not given
`COC(=O)[C@H](C)[C@@H]1N=C(c2ccc(Cl)cc2)c2cc(OC)ccc2-n2c(C)nnc21` (relative stereo) [Compound 3] gave a pIC50 of 7.20.
With `C=CC[C@@H](C(=O)OC(C)(C)C)[C@@H]1N=C(c2ccc(Cl)cc2)c2cc(OC)ccc2-n2c(C)nnc21` [Compound 24] the pIC50 was 5.90.
In the case of `COC(=O)CC1N=C(c2ccc(Cl)cc2)c2ccc(OC)cc2-n2c(C)nnc21` (stereo not drawn) [Compound 2], the pIC50 was 5.80.

Molecular target: BRD3 BD2 L/V (Homo sapiens, UniProt Q15059, L345V)
Sequence (Q15059 306-416 L345V limits assumed): as the sequence (Q15059 306-416) above, with L40V counted along it
Assay: competitive AlphaLISA
Type: binding
Details: not given
Compound `COC(=O)[C@H](C)[C@@H]1N=C(c2ccc(Cl)cc2)c2cc(OC)ccc2-n2c(C)nnc21` (relative stereo) [Compound 3] has a pIC50 of 7.50.
`C=CC[C@@H](C(=O)OC(C)(C)C)[C@@H]1N=C(c2ccc(Cl)cc2)c2cc(OC)ccc2-n2c(C)nnc21` [Compound 24] showed a pIC50 of 6.10.
Compound `COC(=O)CC1N=C(c2ccc(Cl)cc2)c2ccc(OC)cc2-n2c(C)nnc21` (stereo not drawn) [Compound 2] has a pIC50 of 6.00.

Molecular target: BRD2 BD2 WT (Homo sapiens, UniProt P25440)
Sequence (P25440 344-455): as the sequence (P25440 344-455 L383V) above, with V40L counted along it
Assay: competitive AlphaLISA
Type: binding
Details: not given
`COC(=O)[C@H](C)[C@@H]1N=C(c2ccc(Cl)cc2)c2cc(OC)ccc2-n2c(C)nnc21` (relative stereo) [Compound 3] showed a pIC50 of 6.00.
`C=CC[C@@H](C(=O)OC(C)(C)C)[C@@H]1N=C(c2ccc(Cl)cc2)c2cc(OC)ccc2-n2c(C)nnc21` [Compound 24] showed a pIC50 of 5.10.
In the case of `COC(=O)CC1N=C(c2ccc(Cl)cc2)c2ccc(OC)cc2-n2c(C)nnc21` (stereo not drawn) [Compound 2], the pIC50 was 5.60.

Tested on: not listed separately
Assay: Plasma Half-life
Details: BALB/c, mouse, pH 7.4
Compound `COC(=O)[C@H](C)[C@@H]1N=C(c2ccc(Cl)cc2)c2cc(OC)ccc2-n2c(C)nnc21` (relative stereo) [Compound 3] has a half-life at 50 µM greater than 3 h.
Compound `C=CC[C@@H](C(=O)OC(C)(C)C)[C@@H]1N=C(c2ccc(Cl)cc2)c2cc(OC)ccc2-n2c(C)nnc21` [Compound 24] has a half-life at 50 µM greater than 3 h.
With `COC(=O)CC1N=C(c2ccc(Cl)cc2)c2ccc(OC)cc2-n2c(C)nnc21` (stereo not drawn) [Compound 2] the half-life at 50 µM was 1.12 h.

Tested on: not listed separately
Assay: in vitro
Details: PAMPA, pH 7.4
In the case of `COC(=O)[C@H](C)[C@@H]1N=C(c2ccc(Cl)cc2)c2cc(OC)ccc2-n2c(C)nnc21` (relative stereo) [Compound 3], the Papp was 18.5 ×10⁻⁶ cm/s.

Molecular target: BRDT BD2 L/V (Homo sapiens, UniProt Q58F21, L306V)
Assay: competitive AlphaLISA
Type: binding
Details: not given
Compound `COC(=O)[C@H](C)[C@@H]1N=C(c2ccc(Cl)cc2)c2cc(OC)ccc2-n2c(C)nnc21` (relative stereo) [Compound 3] has a pIC50 of 7.10.
With `C=CC[C@@H](C(=O)OC(C)(C)C)[C@@H]1N=C(c2ccc(Cl)cc2)c2cc(OC)ccc2-n2c(C)nnc21` [Compound 24] the pIC50 was 5.80.
Work on `COC(=O)CC1N=C(c2ccc(Cl)cc2)c2ccc(OC)cc2-n2c(C)nnc21` (stereo not drawn) [Compound 2] yielded a pIC50 of 5.50.

Molecular target: BRD2 BD1 WT (Homo sapiens, UniProt P25440)
Sequence (P25440 71-176): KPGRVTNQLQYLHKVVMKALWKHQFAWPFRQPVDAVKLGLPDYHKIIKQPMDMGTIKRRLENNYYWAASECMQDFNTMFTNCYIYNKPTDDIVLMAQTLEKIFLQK
Assay: competitive AlphaLISA
Type: binding
Details: not given
With `COC(=O)[C@H](C)[C@@H]1N=C(c2ccc(Cl)cc2)c2cc(OC)ccc2-n2c(C)nnc21` (relative stereo) [Compound 3] the pIC50 was 5.70.
Compound `C=CC[C@@H](C(=O)OC(C)(C)C)[C@@H]1N=C(c2ccc(Cl)cc2)c2cc(OC)ccc2-n2c(C)nnc21` [Compound 24] has a pIC50 of 5.30.
For `COC(=O)CC1N=C(c2ccc(Cl)cc2)c2ccc(OC)cc2-n2c(C)nnc21` (stereo not drawn) [Compound 2], the pIC50 was 5.70.

Molecular target: BRD3 BD1 WT (Homo sapiens, UniProt Q15059)
Sequence (Q15059 24-144): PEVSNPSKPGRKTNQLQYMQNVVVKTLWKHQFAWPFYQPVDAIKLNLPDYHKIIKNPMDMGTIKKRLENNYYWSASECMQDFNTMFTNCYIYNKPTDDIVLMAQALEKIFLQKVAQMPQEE
Assay: competitive AlphaLISA
Type: binding
Details: not given
Work on `COC(=O)[C@H](C)[C@@H]1N=C(c2ccc(Cl)cc2)c2cc(OC)ccc2-n2c(C)nnc21` (relative stereo) [Compound 3] yielded a pIC50 of 6.60.
Compound `C=CC[C@@H](C(=O)OC(C)(C)C)[C@@H]1N=C(c2ccc(Cl)cc2)c2cc(OC)ccc2-n2c(C)nnc21` [Compound 24] has a pIC50 of 5.40.
